# Where “and” joins values, the source holds several entries; their conditions need not be identical. Equal values may be shown once.
# Assays:
# HECT domain of E6AP = molecular target: T1, HECT domain of E6AP (Homo sapiens, UniProt Q05086); test: Fluorescence polarization binding affinity of FITC-labeled peptides with the E6AP HECT domain; details: Kd of the peptide-HECT complex
# T1 construct: serial dilution of E6AP HECT domain; inferred from pET28a vector and Ni-NTA purification; made in house; host or cells: E. coli BL21 (DE3) pLysS, plasmid pET28a-E6AP HECT
# T1 sequence (Q05086 518-875 limits assumed): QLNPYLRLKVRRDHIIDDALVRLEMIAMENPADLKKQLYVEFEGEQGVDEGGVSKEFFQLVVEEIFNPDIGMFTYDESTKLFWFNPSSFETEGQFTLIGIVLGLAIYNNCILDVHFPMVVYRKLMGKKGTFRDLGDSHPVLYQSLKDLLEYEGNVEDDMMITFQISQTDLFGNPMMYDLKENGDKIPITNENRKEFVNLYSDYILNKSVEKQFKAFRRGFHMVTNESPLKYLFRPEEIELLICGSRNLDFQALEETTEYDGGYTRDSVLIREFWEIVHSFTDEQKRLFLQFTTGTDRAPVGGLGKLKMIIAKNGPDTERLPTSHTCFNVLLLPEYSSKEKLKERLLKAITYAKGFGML
# Procedure: The library was screened based on the binding between the bead-anchored peptides with the HECT domain of E6AP with an N-terminal Flag tag that was recognized by an anti-Flag antibody labeled with AlexaFluor 488 that would emit green fluorescence. […] The peptide ligands from the screen were named P1-8 and they were resynthesized to measure their individual binding affinities with the HECT domain by fluorescence polarization (FP).
# The binding affinity (Kd) of the peptides were measured by fluorescence polarization. Briefly, a constant amount of the 100 nM FITC-labeled cyclic peptide was incubated with a serial dilution of E6AP HECT domain. The Kd values was calculated using the following equation, in which the Lst and x refer to the concentration of peptide and protein, respectively.
# [1] = Serum stability assay (25% serum, HPLC); assay type: in vitro ADME, human; details: 25% serum (v/v), 37° C., 24 h
# Procedure: (§1) A distinctive characteristic of γ-AA peptides compared with canonical peptides is their remarkable resistance to protease. To assay the stability of P6 in presence of protease, P6 was incubated with 0.1 mg/mL pronase at 37° C. for 24 h.
# The serum stabilities of peptides were determined in 25% (v/v) aqueous pooled serum from human male AB plasma (Sigma-Aldrich, Milan, Italy). 1 mg P6 was dissolved in 50 μL CH3CN/H2O (70:30, v/v) and then diluted in serum and incubated at 37° C. for 24 h. Then, 100 μL of solution was added to 100 μL of CH3CN on ice for 15 min and was centrifuged at 4° C. for 10 min. The supernatant was then analyzed by a Waters analytical HPLC system with a 1 mL/min flow rate and 5-100% linear gradient of solvent B (0.1% TFA in acetonitrile) in A (0.1% TFA in water) over the duration of 50 min. The UV detector was set to 215 nm.
# pronase = test: Enzymatic stability study with pronase (HPLC, MS); assay type: in vitro ADME; details: 0.1 mg/mL pronase, 37° C., 24 h
# Procedure: as §1
# 0.01 mg/mL P6 was incubated with 0.1 mg/mL pronase in 100 mM ammonium bicarbonate buffer (pH 7.8) at 37° C. for 24 h. The reaction mixture was concentrated in a speed vacuum to remove the water and ammonium bicarbonate. The remains were dissolved in 100 μL H2O/CH3CN and analyzed by a Waters analytical HPLC system with a 1 mL/min flow rate and 5-100% linear gradient of solvent B (0.1% TFA in acetonitrile) in A (0.1% TFA in water) over the duration of 50 min. The UV detector was set to 215 nm.
Structure (SMILES),Kd (HECT domain of E6AP),stability in human serum [1],stability in presence of protease (pronase)
COc1cc(CC(=O)N2CC(=O)N[C@@H](C)CN(C(=O)Cc3cc(OC)cc(OC)c3)CC(=O)N[C@@H](CC(C)C)CN(CC(N)=O)C(=O)CCSCc3ccc(cc3)C(=O)N[C@@H](Cc3ccccc3)CN(C(=O)Cc3ccc4c(c3)OCO4)CC(=O)N[C@@H](Cc3ccccc3)C2)cc(OC)c1 [P7],80 to 218 nM,,
C[C@H]1CN(C(=O)Cc2ccc3c(c2)OCO3)CC(=O)N[C@@H](Cc2ccccc2)CN(C(=O)Cc2ccc3ccccc3c2)CC(=O)N[C@@H](CCC(=O)O)CN(C(=O)CC2CC2)CC(=O)N[C@@H](Cc2ccccc2)CN(CC(N)=O)C(=O)CCSCc2ccc(cc2)C(=O)N1 [P8],80 to 218 nM,,
COc1cc(CC(=O)N2CC(=O)N[C@@H](Cc3ccccc3)CN(C(=O)CC3CC3)CC(=O)N[C@@H](CC(C)C)CN(CC(N)=O)C(=O)CCSCc3ccc(cc3)C(=O)N[C@@H](CCCCN)CN(C(=O)Cc3ccc4ccccc4c3)CC(=O)N[C@@H](CC(C)C)C2)cc(OC)c1 [P6],80 to 218 nM and 218 nM,stability was confirmed,resistant to protease cleavage
COc1cc(CC(=O)N2CC(=O)N[C@@H](Cc3ccccc3)CN(C(=O)CC3CC3)CC(=O)N[C@@H](CC(C)C)CN(CC(N)=O)C(=O)CCSCc3ccc(cc3)C(=O)N[C@@H](CCC(=O)O)CN(C(=O)Cc3ccc4c(c3)OCO4)CC(=O)N[C@@H](CC(C)C)C2)cc(OC)c1 [P5],80 to 218 nM,,
CC(C)C[C@H]1CN(CC(N)=O)C(=O)CCSCc2ccc(cc2)C(=O)N[C@@H](Cc2ccccc2)CN(C(=O)Cc2ccc3ccccc3c2)CC(=O)N[C@@H](CC(C)C)CN(C(=O)CCC2CCCCC2)CC(=O)N[C@@H](Cc2ccccc2)CN(C(=O)Cc2ccc3c(c2)OCO3)CC(=O)N1 [P4],80 to 218 nM,,
CC(C)C[C@H]1CN(CC(N)=O)C(=O)CCSCc2ccc(cc2)C(=O)N[C@@H](C)CN(C(=O)Cc2ccc3ccccc3c2)CC(=O)N[C@@H](CC(C)C)CN(C(=O)CCc2ccccc2)CC(=O)N[C@@H](Cc2ccccc2)CN(C(=O)Cc2ccc3c(c2)OCO3)CC(=O)N1 [P3],80 to 218 nM,,

# Reference: patent US20240368219A1, “ACTIVATION OF E6AP/UBE3A-MEDIATED PROTEIN UBIQ[…] D[…] BY A CYCLIC GAMMA-AA PEPTIDE” (University of South Florida, priority 2022, published 2024)
